The results in this text go back to patent US20030086820A1 (priority 2001, published 2003).

Read-outs that look alike come from different tables or passages of the source.

In one assay the target is prion protein (PRP^SC) (Homo sapiens, UniProt P04156).
A further assay has as its target BSA protein (Bos taurus, UniProt P02769).
Assay [1] relates to ileal fluid dependent organism (IFDO).

BSA protein, sequence (P02769 25-607 limits assumed): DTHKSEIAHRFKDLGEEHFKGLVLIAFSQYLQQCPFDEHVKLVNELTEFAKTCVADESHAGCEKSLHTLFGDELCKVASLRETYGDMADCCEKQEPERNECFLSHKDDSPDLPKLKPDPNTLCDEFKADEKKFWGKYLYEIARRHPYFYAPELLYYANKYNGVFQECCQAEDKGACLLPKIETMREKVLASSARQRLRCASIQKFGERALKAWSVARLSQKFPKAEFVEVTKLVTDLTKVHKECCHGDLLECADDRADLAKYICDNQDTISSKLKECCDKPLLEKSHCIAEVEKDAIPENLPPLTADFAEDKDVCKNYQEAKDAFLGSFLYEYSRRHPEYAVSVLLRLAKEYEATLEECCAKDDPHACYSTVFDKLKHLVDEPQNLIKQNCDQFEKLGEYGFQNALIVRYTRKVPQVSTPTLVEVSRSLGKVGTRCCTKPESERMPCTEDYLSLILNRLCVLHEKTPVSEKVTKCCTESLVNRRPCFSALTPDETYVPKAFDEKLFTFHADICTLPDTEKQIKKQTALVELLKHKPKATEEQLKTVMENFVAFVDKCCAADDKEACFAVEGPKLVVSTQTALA

For the molecule `OO` [Vapor Hydrogen Peroxide, hydrogen peroxide], the “log reduction in IFDO” value (with IFDO organisms; in assay [1]) was “six” throughout. The “number of colonies developed from IFDO remaining on the vacuum treated samples” value with IFDO organisms is recorded as “less than 1 log”. For the same molecule, the “PRP^SC Detected” value on prion protein (PRP^SC) (25° C., 1.7 mg/L, 3 hours exposure, atmospheric pressure) is reported as “No”; at prion protein (PRP^SC) (30° C., 2.2 mg/L, vacuum conditions, six pulses of vapor) it was “No”; at prion protein (PRP^SC) (50° C., 7.0 mg/L, vacuum conditions, three pulses of vapor), “No”. For the same molecule, the “destruction of the harmful form of the prion protein” value at prion protein (PRP^SC) (summary of Table 7, no precleaning step) is “effective at destruction of the harmful form of the prion protein”. For the same molecule, on BSA protein, the “breakdown of protein (gel electrophoresis)” value is “effectively destroys proteins”. Besides, the “number of colonies developed on the vacuum treated samples” value in assay [1] is “less than 1 log”. Further, the “deactivating the prion model (IFDO): vacuum pulses versus atmospheric conditions” value in assay [1] (FIG. 9, atmospheric 1.5 mg/l 30° C. or 3 mg/l 40° C., 15 minutes) is reported as “more effective”.
